Experiments:
Test in all cases: relative viability (nuclei count vs DMSO), 5 days (fraction); higher = more cells survive
IU1-47 + Vorinostat = compound: CC1=CC(=C(N1C2=CC=C(C=C2)Cl)C)C(=O)CN3CCCCC3 [IU1-47] + O=C(CCCCCCC(=O)Nc1ccccc1)NO [Vorinostat] (partner 1 µM)
Method in brief: (§1)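 Medians of duplicate plates are given as relative viability. That measure is the nuclei count in treated wells divided by the count in vehicle wells. Counts were taken on 4× images of lung cancer cell lines in 1536-well plates, 5 days after pin-tool dosing the day after seeding with one drug alone or a fixed anchor-drug dose plus five library-drug doses (not always all listed) in √10 steps.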

IU1-47 + Phenformin = compound: CC1=CC(=C(N1C2=CC=C(C=C2)Cl)C)C(=O)CN3CCCCC3 [IU1-47] + N=C(N)NC(=N)NCCc1ccccc1 [Phenformin] (partner 250 µM)
Method in brief: as §1

FG-4592 + Vorinostat = compound: Cc1nc(C(=O)NCC(=O)O)c(O)c2ccc(Oc3ccccc3)cc12 [FG-4592] + O=C(CCCCCCC(=O)Nc1ccccc1)NO [Vorinostat] (partner 1 µM)
Method in brief: as §1

FG-4592 + Lapatinib = compound: Cc1nc(C(=O)NCC(=O)O)c(O)c2ccc(Oc3ccccc3)cc12 [FG-4592] + CS(=O)(=O)CCNCc1ccc(-c2ccc3ncnc(Nc4ccc(OCc5cccc(F)c5)c(Cl)c4)c3c2)o1 [Lapatinib] (partner 2 µM)
Method in brief: as §1

Cell Line	relative viability (IU1-47 + Vorinostat; first compound 0.08 µM)	relative viability (IU1-47 + Vorinostat; first compound 0.253 µM)	relative viability (IU1-47 + Vorinostat; first compound 0.8 µM)	relative viability (IU1-47 + Vorinostat; first compound 2.53 µM)	relative viability (IU1-47 + Vorinostat; first compound 8 µM)	relative viability (IU1-47 + Phenformin; first compound 0.08 µM)	relative viability (IU1-47 + Phenformin; first compound 0.253 µM)	relative viability (IU1-47 + Phenformin; first compound 0.8 µM)	relative viability (IU1-47 + Phenformin; first compound 2.53 µM)	relative viability (IU1-47 + Phenformin; first compound 8 µM)	relative viability (FG-4592 + Vorinostat; first compound 0.08 µM)	relative viability (FG-4592 + Vorinostat; first compound 0.253 µM)	relative viability (FG-4592 + Vorinostat; first compound 0.8 µM)	relative viability (FG-4592 + Vorinostat; first compound 2.53 µM)	relative viability (FG-4592 + Vorinostat; first compound 8 µM)	relative viability (FG-4592 + Lapatinib; first compound 0.08 µM)	relative viability (FG-4592 + Lapatinib; first compound 0.253 µM)	relative viability (FG-4592 + Lapatinib; first compound 0.8 µM)	relative viability (FG-4592 + Lapatinib; first compound 2.53 µM)	relative viability (FG-4592 + Lapatinib; first compound 8 µM)
LOU-NH91	1.09	1.04	0.912	1.04	0.82	0.855	0.942	0.771	0.672	0.698	0.993	0.86	0.817	0.866	0.95	0.72	0.759	0.618	0.734	0.631
NCI-H2405	1.06	1.08	1.14	0.925	1.01	0.404	0.415	0.386	0.371	0.365	0.767	0.906	0.92	0.942	0.961	–	0.733	0.87	0.918	0.702
LCLC-97TM1	0.919	0.869	0.82	–	0.571	0.441	0.409	0.435	0.428	0.461	0.63	0.737	–	0.328	0.671	1.13	1.12	0.716	–	0.791
NCI-H596	0.715	–	0.662	0.658	0.587	0.786	0.61	0.78	0.709	0.677	0.441	0.507	–	0.637	0.584	1.04	1.01	–	1.02	0.847
NCI-H727	1.26	1.38	1.21	1.13	1.11	0.675	0.712	0.56	0.63	0.387	1.07	1.17	1.28	1.33	1.21	0.632	0.809	0.742	0.754	0.863
H3255	0.918	0.883	1.02	–	0.669	0.426	0.358	0.294	0.365	0.352	0.89	0.684	0.721	0.693	0.84	0.275	0.235	0.271	0.257	0.26
SK-MES-1	1.09	1.15	1.26	1.24	1.03	0.729	0.76	0.66	0.662	0.575	1.13	0.969	1.02	0.947	1.02	0.513	0.489	0.42	0.489	0.397
NCI-H1437	0.807	0.801	0.81	0.735	0.801	0.337	0.272	0.25	0.341	0.297	0.751	0.786	0.912	0.894	0.722	0.883	0.817	0.8	0.677	0.499
LU99A	0.557	0.513	0.5	0.579	0.426	0.846	0.838	0.856	0.813	0.904	0.464	0.523	–	0.506	0.423	0.964	0.93	0.801	0.96	0.83
HCC-827	0.966	1.08	1.02	0.879	0.558	0.44	0.425	0.416	0.464	0.37	0.85	0.823	0.927	0.842	0.81	0.192	0.192	0.193	0.18	0.22
LK-2	0.21	0.195	0.175	0.331	0.274	0.467	0.504	0.432	0.579	0.239	0.299	0.245	0.228	0.208	0.214	0.695	0.912	0.68	0.886	0.767
HCC-366	0.298	0.283	0.378	0.453	0.342	0.648	0.561	0.648	0.584	0.594	0.263	0.269	0.185	0.308	0.33	0.89	0.998	1.1	1.1	1.13
BEN	0.605	0.653	0.681	0.564	0.544	0.263	0.24	0.27	–	0.275	0.558	0.566	0.459	0.546	0.547	0.495	0.507	0.555	0.822	0.475
NCI-H23	0.661	–	0.653	0.666	0.622	0.757	0.884	0.904	0.678	0.828	0.484	0.451	0.415	0.507	0.634	1.09	1.07	0.953	0.772	1.01
NCI-H1395	0.676	0.798	0.611	0.517	0.605	0.408	0.456	0.472	0.436	0.374	0.729	0.771	0.493	0.675	0.623	1.19	0.935	–	0.967	0.662
201T	1.08	1.03	1.07	0.356	0.915	0.419	0.435	0.486	–	0.362	0.905	0.933	0.807	0.972	0.993	0.976	1.03	0.931	1.04	1.01
NCI-H2170	0.997	0.973	0.921	0.748	0.747	0.48	0.435	0.389	0.414	0.403	0.825	0.747	0.627	0.785	0.608	0.263	0.244	0.242	0.277	0.256

— the supplement of paper PMC10307832
